Experimental data: US6472348B1, “Pyridone derivatives and herbicides” (Kumiai Chemical Industry Co., Ltd., priority 1996, dated 2002)

Assays:
Format in all cases: in vivo
pale smartweed (Po) [1] = assay: Test Example 11: crop plant selectivity by upland field foliage treatment (corn), herbicidal effects; design: scale not given here
Procedure, shortened: (§1)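 Corn and the weed species were sown together in sand-filled pots and grown in a greenhouse for 2 weeks before foliar treatment. Herbicidal effect was scored on day 14 after treatment against a graded standard scale, with corn phytotoxicity scored alongside.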

China jute (Ab) = assay: as above; design: scale not given here
Procedure, shortened: as §1

barnyardgrass (Ec) = assay: Test Example 2: herbicidal effects by upland field soil treatment; details: 100 g of the active ingredient per 10 ares;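 further: grade of growth control; 5 = at least 90%; 4 = 70 to 90%; 3 = 50 to 70%; 2 = 30 to 50%; 1 = 10 to 30%; 0 = under 10%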
Text: (§2) (Test on Herbicidal Effects by Upland Field Soil Treatment)

pale smartweed (Po) [2] = assay: as above; details: 100 g of the active ingredient per 10 ares
Text: as §2

Digitaria ciliaris (Di) = assay: as above; details: 100 g of the active ingredient per 10 ares;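 further: grade of growth control; 5 = at least 90%; 4 = 70 to 90%; 3 = 50 to 70%; 2 = 30 to 50%; 1 = 10 to 30%; 0 = under 10%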
Text: as §2

rice flatsedge (Ci) = assay: as above; details: 100 g of the active ingredient per 10 ares;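 further: grade of growth control; 5 = at least 90%; 4 = 70 to 90%; 3 = 50 to 70%; 2 = 30 to 50%; 1 = 10 to 30%; 0 = under 10%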
Text: as §2

slender amaranth (Am) = assay: as above; details: 100 g of the active ingredient per 10 ares;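 further: grade of growth control; 5 = at least 90%; 4 = 70 to 90%; 3 = 50 to 70%; 2 = 30 to 50%; 1 = 10 to 30%; 0 = under 10%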
Text: as §2

[3] = tested on: common lambsquarters (Ch); assay: as above; details: 100 g of the active ingredient per 10 ares
Text: as §2

soybean (Gl) = assay: Test Example 6: crop plant selectivity by upland field soil treatment (soybean), phytotoxicity; design: scale not given here; details: 21st day after application
Procedure, shortened: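 Pre-emergence soil treatment; sand-filled pots, seeds sown then soil-covered; greenhouse culture; visual rating of weed control and soybean injury on day 21 post-application per standard scale.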

[4] = upland field foliage treatment (corn test), dose 1.6 g ai/10a, 14th day after treatment
[5] = evaluated on the 21st day after application
[6] = 21st day after the application, index 0-5 of Table 47
[7] = pale smartweed, foliage treatment, dose 1.6 g ai/10a, evaluated on 14th day after treatment, index per Table 47
[8] = China jute, foliage treatment, dose 1.6 g ai/10a, evaluated on 14th day after treatment, index per Table 47
[9] = upland field foliage treatment (corn test), dose 0.1 g ai/10a, 14th day after treatment

Row | SMILES | Herbicidal effects Po (pale smartweed (Po) [1]; [4]) | Herbicidal effects Ab (China jute (Ab); [4]) | Herbicidal effects Ec (barnyardgrass (Ec); [5]) | Herbicidal effects Po (pale smartweed (Po) [2]; [5]) | Herbicidal effects Di (Digitaria ciliaris (Di); [5]) | Herbicidal effects Ci (rice flatsedge (Ci); [5]) | Herbicidal effects Am (slender amaranth (Am); [5]) | Herbicidal effects Ch [3, 5] | Phytotoxicity Gl (soybean (Gl); dose 6.3 g ai/10a) | Herbicidal effects Ec (barnyardgrass (Ec); [6]) | Herbicidal effects Po (pale smartweed (Po) [2]; [6]) | Herbicidal effects Di (Digitaria ciliaris (Di); [6]) | Herbicidal effects Ci (rice flatsedge (Ci); [6]) | Herbicidal effects Am (slender amaranth (Am); [6]) | Herbicidal effects Ch [3, 6] | Phytotoxicity Gl (soybean (Gl); dose 1.6 g ai/10a) | Herbicidal effects Po (pale smartweed (Po) [1]; [7]) | Herbicidal effects Ab (China jute (Ab); [8]) | Herbicidal effects Po (pale smartweed (Po) [1]; [9]) | Herbicidal effects Ab (China jute (Ab); [9])
1 | COCc1cc2c(-c3ccc(C(F)(F)F)n(C)c3=O)c(F)cc(Cl)c2o1 [Compound No. 4-4, 3-(7-chloro-5-fluoro-2-methoxymethylbenzofuran-4-yl)-1-methyl-6-trifluoromethyl-2-(1H)-pyridone] | 5 | 5 | 5 | 5 | 5 | 5 | 5 | 5 | 2 | – | – | – | – | – | – | – | – | – | – | –
2 | C=CCOc1cc(-c2ccc(C(F)(F)F)n(C)c2=O)c(F)cc1Cl [1-16] | 5 | 5 | – | – | – | – | – | – | – | 5 | 5 | 5 | 5 | 5 | 5 | 1 | – | – | – | –
3 | CCOCOc1cc(-c2ccc(C(F)(F)F)n(C)c2=O)c(F)cc1Cl [1-181] | 5 | 5 | 5 | 5 | 5 | 5 | 5 | 5 | 1 | – | – | – | – | – | – | – | – | – | – | –
4 | C=CC(C)Oc1cc(-c2ccc(C(F)(F)F)n(C)c2=O)c(F)cc1Cl (stereo not drawn) [Compound 1-182] | 5 | 5 | 5 | 5 | 5 | 5 | 5 | 5 | 1 | – | – | – | – | – | – | – | – | – | – | –
5 | CON=Cc1cc(-c2ccc(C(F)(F)F)n(C)c2=O)c(F)cc1Cl [Compound No. 1-72, 5-(1-methyl-6-trifluoromethyl-2(1H)-pyridon-3-yl)-2-chloro-4-fluorobenzaldehydeoxime-O-methyl ether] | 5 | 5 | – | – | – | – | – | – | 2 | 5 | 5 | 5 | 5 | 5 | 5 | 1 | – | – | – | –
6 | C#CCOc1cc(-c2ccc(C(F)(F)F)n(C)c2=O)c(Cl)cc1Cl [1-30] | 5 | 5 | – | – | – | – | – | – | – | 5 | 5 | 5 | 5 | 5 | 5 | 1 | – | – | – | –
7 | C#CCN1C(=O)COc2cc(F)c(-c3cn(C)c(C(F)(F)F)cc3=O)cc21 [Compound 7-1] | – | – | 5 | 5 | 5 | 5 | 5 | 5 | 1 | – | – | – | – | – | – | – | 5 | 5 | – | –
8 | CSCOc1cc(-c2ccc(C(F)(F)F)n(C)c2=O)c(F)cc1Cl [Compound 1-208] | 5 | 5 | 5 | 5 | 5 | 5 | 5 | 5 | 2 | – | – | – | – | – | – | – | – | – | – | –
9 | C#CCN1C(=O)COc2cc(F)c(-c3ccc(C(F)(F)F)n(C)c3=O)cc21 [Compound No. 2-1, 3-[7-fluoro-2,3-dihydro-4-(2-propynyl)-1,4-benzoxazin-3-on-6-yl]-1-methyl-6-trifluoromethyl-2(1H)-pyridone] | – | – | 5 | 5 | 5 | 5 | 5 | 5 | 1 | – | – | – | – | – | – | 0 | – | – | 5 | 5
10 | CCOC(=O)c1cc(-c2ccc(C(F)(F)F)n(C)c2=O)c(F)cc1Cl [1-65] | 5 | 5 | – | – | – | – | – | – | 1 | 5 | 5 | 5 | 5 | 5 | 5 | 1 | – | – | – | –
11 | C=CCN1C(=O)COc2cc(Cl)c(-c3ccc(C(F)(F)F)n(C)c3=O)cc21 [Compound 2-26] | 5 | 5 | 5 | 5 | 5 | 5 | 5 | 5 | 1 | – | – | – | – | – | – | – | – | – | – | –
12 | COc1cc(-c2ccc(C(F)(F)F)n(N)c2=O)c(F)cc1Cl [1-179] | 5 | 5 | 5 | 5 | 5 | 5 | 5 | 5 | – | – | – | – | – | – | – | – | – | – | – | –
13 | Cn1c(C(F)(F)F)ccc(-c2c(F)cc(Cl)c3occc23)c1=O [Compound No. 4-28, 3-(7-chloro-5-fluorobenzofuran-4-yl)-1-methyl-6-trifluoromethyl-2-(1H)-pyridone] | 5 | 5 | 4 | 5 | 5 | 5 | 5 | 5 | – | – | – | – | – | – | – | 2 | – | – | – | –
14 | CCCc1cc2c(-c3ccc(C(F)(F)F)n(C)c3=O)c(F)cc(Cl)c2o1 [Compound 4-3] | 5 | 5 | 5 | 5 | 5 | 5 | 5 | 5 | 1 | – | – | – | – | – | – | – | – | – | – | –
15 | C=CC(O)c1cc(-c2ccc(C(F)(F)F)n(C)c2=O)c(F)cc1Cl (stereo not drawn) [Compound 1-197] | 5 | 5 | 5 | 5 | 5 | 5 | 5 | 5 | 1 | – | – | – | – | – | – | – | – | – | – | –
16 | CCON=Cc1cc(-c2ccc(C(F)(F)F)n(C)c2=O)c(F)cc1Cl [Compound 1-187] | 5 | 5 | 5 | 5 | 5 | 5 | 5 | 5 | 1 | – | – | – | – | – | – | – | – | – | – | –
17 | Cn1c(C(F)(F)F)ccc(-c2cc(C#N)c(Cl)cc2F)c1=O [Compound No. 1-119, 3-(4-chloro-5-cyano-2-fluorophenyl)-1-methyl-6-trifluoromethyl-2(1H)-pyridone] | 5 | 4 | – | – | – | – | – | – | 2 | 5 | 5 | 5 | 5 | 5 | 5 | – | – | – | – | –
18 | C#CCOc1cc(-c2ccc(C(F)(F)F)n(N)c2=O)c(F)cc1Cl [1-178] | 5 | 5 | 5 | 5 | 5 | 5 | 5 | 5 | – | – | – | – | – | – | – | – | – | – | – | –
19 | CCc1cc2c(Cl)cc(F)c(-c3ccc(C(F)(F)F)n(C)c3=O)c2o1 [Compound 5-2] | – | – | 5 | 5 | 5 | 5 | 5 | 5 | 1 | – | – | – | – | – | – | – | 5 | 5 | – | –
20 | Cn1c(C(F)(F)F)ccc(-c2cc(OCC#N)c(Cl)cc2F)c1=O [1-25] | 5 | 5 | – | – | – | – | – | – | 2 | 5 | 5 | 5 | 5 | 5 | 5 | – | – | – | – | –
21 | Cn1c(C(F)(F)F)ccc(-c2cc(OCC(F)(F)F)c(Cl)cc2F)c1=O [1-155] | – | – | – | – | – | – | – | – | 0 | 5 | 5 | 5 | 5 | 5 | 5 | 0 | – | – | – | –
